According to patent publication US20230095912A1, “Composition and Methods for Selective Degradation of Engineered Proteins” (Celgene Corporation, priority 2021, published 2023):

Columns and labels:
ePL-tagged CK1a = target: T1, ePL-tagged CK1a (Homo sapiens, UniProt P48729+Q96SW2); assay: ePL-tagged substrate degradation in MDS-L cells; assay type: cell-based
T1 construct: expressed in transfected cells
Method: (§1) DF15 multiple myeloma cells stably expressing ePL-tagged Aiolos, Ikaros, or GSPT1, and MDS-L cells stably expressing ePL-tagged CK1a were generated via lentiviral infection with pLOC-ePL-Aiolos (or Ikaros, GSPT1, or CK1a). […] Compounds were dispensed by an acoustic dispenser (ATS acoustic transfer system from EDC Biosystems) into a 384-well plate in a 10-point dose response curve using 3-fold dilutions starting at 10 μM and going down to […]. Then, 25 μL of media (RPMI-1640+10% heat inactivated FBS+25 mM Hepes+1 mM Na pyruvate+1× NEAA+1×Pen Strep Glutamine) containing 5000 of DF15 or MSD-L cells was dispensed per well. Assay plates were incubated at 37° C. with 5% CO2 for 4 hours except 20 hours for GSPT1. After incubation, 25 μL of the InCELL Hunter detection reagent working solution (DiscoverX, catalogue no. 96-0002, Fremont, Calif.) was added to each well and incubated at room temperature for 60 min protected from light. After 60 min, luminescence was read on an Envision or PHERAstar luminescence reader.
To determine the EC50 value of a compound for the degradation of a given substrate (concentration of compound that achieves half the maximum degradation observed), a four-parameter logistic model (sigmoidal dose—response model) (FIT=(A+{(B−A)/1+[(C/x)D]})) where C is the inflection point (EC50), D is the […], and A and B are the low and high limits of the fit, respectively) was used. All substrate degradation curves were processed and evaluated using ActivityBase (IDBS), a data analysis software package. Ymin is minimum percent protein remaining.

ePL-tagged Aiolos = target: T2, ePL-tagged Aiolos (Homo sapiens, UniProt Q96SW2+Q9UKT9); assay: ePL-tagged substrate degradation in DF15 multiple myeloma cells; assay type: cell-based
T2 construct: expressed in transfected cells
Method: as §1
All substrate degradation curves were processed and evaluated using ActivityBase (IDBS), a data analysis software package. Ymin is minimum percent protein remaining.

[1] = target: T3, IKZF1 ZNF2_3 Q1F tagged CD19 CAR (Homo sapiens, UniProt Q13422, Q146F); assay: CRBN and ubiquitin-proteasome pathway dependence of Q1F-tagged CAR degradation in Jurkat cells; assay type: cell-based; design: tagged CAR remaining / levels of tagged CAR: dose or concentration left out as unconfirmed; conditions: Jurkat CRBN KO cells, 1 hour
T3 construct: expressed in transfected cells; host or cells: Jurkat wild type, Jurkat CRBN knockout, Jurkat reporter line; lentiviral transduction
Method: The dependence of Q1F-degron-tagged CAR degradation on CRBN and ubiquitin proteolytic pathway were assessed. CD19-targeting CAR was tagged with either IKZF1 ZNF2_3 Q1F (SEQ ID NO: 19) or Q1F/G6N (SEQ ID NO: 59). Lentiviral vectors containing these tagged CARs were then transduced into wildtype (WT) or cereblon (CRBN) knockout (KO) Jurkat cells.
Next, dependence of CAR degradation on the ubiquitin-proteosome pathway was tested by treating WT Jurkats transduced with tagged CAR for 2 hours with DMSO, 20 nM or 200 nM Compound C alone, or alongside either 2 μM of the NEDD8 E1 enzyme inhibitor MLN4924 or 2 μM of proteasome blocker Bortezomib (FIG. 11C).

[2] = test system: IKZF1 ZNF2_3 Q1F tagged CD19 CAR; assay: Jurkat reporter assay (tdTomato), signaling of Q1F-tagged CAR after degradation; assay type: cell-based, human; conditions: 1 mM pre-treatment 12 hours, co-culture with CD19-expressing K562 8 hours
Method: A lentiviral vector encoding ZNF2_3 Q1F or Q1F/G6N tagged CD19 CAR was transduced into the reporter cell line. […] Levels of tdTomato in the form of the overall percent of positive cells (FIG. 12A), as well as mean fluorescence intensity (MFI, FIG. 12B) were assessed by flow cytometry. Degradation of CARs containing the ZNF2_3 Q1F degron decreased signaling by around 30% using 1 mM Compound C and by around 75% using Compound B; this relative difference correlates with the depth of degradation seen for each. Further, the reduction in activity depends upon having an intact G-motif, as the G6N mutation prevents inhibition.

T2 sequence (Q9UKT9 whole entry): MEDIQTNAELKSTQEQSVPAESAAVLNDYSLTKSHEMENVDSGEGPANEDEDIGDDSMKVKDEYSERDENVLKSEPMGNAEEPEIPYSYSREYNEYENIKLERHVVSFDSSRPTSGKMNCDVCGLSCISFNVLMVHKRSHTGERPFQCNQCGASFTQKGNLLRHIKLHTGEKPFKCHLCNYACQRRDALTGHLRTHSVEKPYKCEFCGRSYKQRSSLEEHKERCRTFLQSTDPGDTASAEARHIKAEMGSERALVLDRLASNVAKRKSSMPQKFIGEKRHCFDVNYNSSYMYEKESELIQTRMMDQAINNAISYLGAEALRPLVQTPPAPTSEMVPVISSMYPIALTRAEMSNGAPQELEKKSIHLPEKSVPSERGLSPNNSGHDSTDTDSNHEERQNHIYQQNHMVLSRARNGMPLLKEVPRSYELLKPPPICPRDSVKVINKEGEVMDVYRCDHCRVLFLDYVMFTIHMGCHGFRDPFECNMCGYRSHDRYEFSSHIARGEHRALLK
T2 sequence (Q96SW2 whole entry): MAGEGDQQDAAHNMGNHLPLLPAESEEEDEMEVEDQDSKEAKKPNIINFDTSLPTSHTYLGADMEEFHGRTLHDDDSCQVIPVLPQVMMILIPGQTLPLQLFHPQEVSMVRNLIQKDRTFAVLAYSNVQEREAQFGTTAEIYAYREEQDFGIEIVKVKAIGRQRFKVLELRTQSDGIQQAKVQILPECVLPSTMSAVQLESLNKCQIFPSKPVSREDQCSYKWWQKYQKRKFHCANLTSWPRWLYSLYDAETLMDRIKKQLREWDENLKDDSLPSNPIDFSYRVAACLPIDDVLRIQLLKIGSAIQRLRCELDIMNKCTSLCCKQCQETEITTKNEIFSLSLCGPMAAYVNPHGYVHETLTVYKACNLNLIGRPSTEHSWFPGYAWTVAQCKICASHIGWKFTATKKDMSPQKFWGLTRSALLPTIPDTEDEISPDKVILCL
T2 sequence (Q16531 whole entry partner): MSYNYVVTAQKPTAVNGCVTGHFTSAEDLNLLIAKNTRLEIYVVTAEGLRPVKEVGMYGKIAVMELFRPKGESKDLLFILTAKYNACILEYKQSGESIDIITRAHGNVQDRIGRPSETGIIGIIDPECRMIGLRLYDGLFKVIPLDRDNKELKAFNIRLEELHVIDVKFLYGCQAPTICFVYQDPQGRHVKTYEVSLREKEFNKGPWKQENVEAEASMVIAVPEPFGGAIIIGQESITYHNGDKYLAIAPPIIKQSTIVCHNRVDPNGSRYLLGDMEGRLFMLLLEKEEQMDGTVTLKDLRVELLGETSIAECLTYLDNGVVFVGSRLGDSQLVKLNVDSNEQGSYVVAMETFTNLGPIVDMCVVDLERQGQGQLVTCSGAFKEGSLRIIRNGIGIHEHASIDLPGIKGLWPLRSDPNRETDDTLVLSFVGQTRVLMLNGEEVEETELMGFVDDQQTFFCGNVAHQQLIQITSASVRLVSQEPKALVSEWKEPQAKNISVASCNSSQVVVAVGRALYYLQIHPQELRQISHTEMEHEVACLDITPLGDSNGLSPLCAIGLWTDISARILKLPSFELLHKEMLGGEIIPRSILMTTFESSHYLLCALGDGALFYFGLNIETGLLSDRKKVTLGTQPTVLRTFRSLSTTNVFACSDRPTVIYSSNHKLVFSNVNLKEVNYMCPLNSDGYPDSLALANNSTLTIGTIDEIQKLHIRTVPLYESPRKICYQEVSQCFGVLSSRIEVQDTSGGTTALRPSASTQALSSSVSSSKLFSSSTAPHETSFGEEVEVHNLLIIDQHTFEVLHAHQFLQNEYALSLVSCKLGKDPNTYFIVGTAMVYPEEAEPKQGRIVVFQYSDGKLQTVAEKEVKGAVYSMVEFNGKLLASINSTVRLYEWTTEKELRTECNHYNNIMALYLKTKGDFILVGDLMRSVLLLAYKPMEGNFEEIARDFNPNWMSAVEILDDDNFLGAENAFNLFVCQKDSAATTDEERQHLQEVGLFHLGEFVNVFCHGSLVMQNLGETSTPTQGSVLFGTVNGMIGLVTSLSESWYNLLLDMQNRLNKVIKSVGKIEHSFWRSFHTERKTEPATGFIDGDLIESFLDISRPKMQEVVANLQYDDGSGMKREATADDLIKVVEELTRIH
T1 sequence (P48729 whole entry): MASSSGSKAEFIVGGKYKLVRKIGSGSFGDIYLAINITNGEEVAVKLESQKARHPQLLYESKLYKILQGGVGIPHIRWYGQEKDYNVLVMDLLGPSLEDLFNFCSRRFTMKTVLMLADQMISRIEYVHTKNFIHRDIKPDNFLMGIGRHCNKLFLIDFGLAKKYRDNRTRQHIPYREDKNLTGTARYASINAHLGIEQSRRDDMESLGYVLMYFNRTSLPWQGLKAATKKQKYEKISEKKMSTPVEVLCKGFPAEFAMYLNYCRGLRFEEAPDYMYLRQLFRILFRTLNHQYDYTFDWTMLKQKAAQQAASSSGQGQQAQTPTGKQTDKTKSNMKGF
T1 sequence (Q96SW2 whole entry): as the sequence (Q96SW2 whole entry) above
T1 sequence (Q16531 whole entry partner): as the sequence (Q16531 whole entry partner) above
T3 sequence (Q13422 141-196 Q146F): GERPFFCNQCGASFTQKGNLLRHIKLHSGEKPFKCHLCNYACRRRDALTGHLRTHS

Structure (SMILES): Cc1ncccc1N1CCN(Cc2ccc3c(c2)CN(C2CCC(=O)NC2=O)C3=O)CC1 (stereo not drawn) [Compound C, 3-(5-((4-(2-methylpyridin-3-yl)piperazin-1-yl)methyl)-1-oxoisoindolin-2-yl)piperidine-2,6-dione]
- Ymin (%) (ePL-tagged CK1a): 98%
- DC50 (ePL-tagged CK1a; CK1a, MDS-L cells, 4 hours, read-out: EC50 (the source's name)): > 10 µM
- Ymin (%) (ePL-tagged Aiolos): 83%
- DC50 (ePL-tagged Aiolos; Aiolos, DF15 cells, 4 hours, read-out: EC50 (the source's name)): > 10 µM
- levels of tagged CAR [1]: remained identical to untagged CAR
- decrease of signaling (tdTomato reporter) [2]: around 30%
